Assay results reported in patent US10221163B2 (priority 2015, dated 2019).
Where two headings read alike, the source gives them in different places.

Experiments:
[1] = tested on: Pseudomonas aeruginosa MB9798 vs MB9799; settings: ratio MITC95 PA_9798/MITC95 PA_9799
Outline: (§1)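 Microbroth MIC tests in PAO1-background strains with fixed imipenem and/or ceftazidime, usually at the CLSI breakpoint, plus fixed class A/C β-lactamase inhibitor against AmpC. MBL inhibitor titrated; concentration restoring susceptibility recorded and compared as fold difference between efflux+ MB9798 and efflux− MB9799.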

[2] = tested on: Serratia marcescens expressing IMP-1 (CL5741); type: cell-based; settings: for Serratia marcescens expressing IMP-1 (CL5741) MITC95: with imipenem 1 μg/ml, 95% inhibition of bacterial growth; for Serratia marcescens MITC95: IMP-1 strain CL5741, with imipenem 1 μg/ml, 95% inhibition of growth
Outline: (§2)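 Clinical strains grown overnight on blood agar at 35°C, colonies suspended in saline, diluted 1:100 into 1.1×CAMHB. Test compound titrated with imipenem at 1 μg/ml; incubated 22–24 h at 35°C, growth read by absorbance.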

[3] = tested on: Klebsiella pneumoniae expressing VIM-1 (IHMA599644); type: cell-based; settings: for Klebsiella pneumoniae expressing VIM-1 (IHMA599644) MITC95: with imipenem 1 μg/ml, 95% inhibition of bacterial growth; for Klebsiella pneumoniae MITC95: VIM-1 strain IHMA599644, with imipenem 1 μg/ml, 95% inhibition of growth
Outline: as §2

[4] = tested on: Escherichia coli expressing NDM-1 (CLB30005, CLB30016); type: cell-based; settings: with imipenem 1 μg/ml; for Escherichia coli expressing NDM-1 (CLB30016) MITC95: 95% inhibition of bacterial growth; for Escherichia coli MITC95: NDM-1 strain, 95% inhibition of growth
Outline: as §2

[5] = tested on: Pseudomonas aeruginosa efflux− (MB9799), IMP-1; type: cell-based; settings: concentration restoring susceptibility to imipenem at 2 μg/mL in the presence of a class A, C, D serine β-lactamase inhibitor closely related to relebactam
Outline: as §1

[6] = tested on: Pseudomonas aeruginosa efflux+ (MB9798), IMP-1; type: cell-based; settings: concentration restoring susceptibility to imipenem at 2 μg/mL in the presence of a class A, C, D serine β-lactamase inhibitor closely related to relebactam
Outline: as §1

[7] = molecular target: VIM-1 (Pseudomonas aeruginosa (strain ATCC 15692 / DSM 22644 / CIP 104116 / JCM 14847 / LMG 12228 / 1C / PRS 101 / PAO1), UniProt A0A0F7KYQ8); assay: biochemical; settings: CCF2-FA substrate, 30 pM enzyme, 2 hours at 25° C.
Outline: (§3)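 Fluorescence assay of metallo-β-lactamase activity using CCF2-FA, a cephalosporin-linked 7-hydroxycoumarin–fluorescein substrate. Inhibitor, enzyme and substrate were incubated together for 2 hours at 25° C. IC50 came from a 4-parameter fit of inhibition versus inhibitor concentration.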

[8] = molecular target: NDM-1 (Klebsiella pneumoniae, UniProt C7C422); assay: biochemical; type: biochemical; settings: fluorescence assay, CCF2-FA substrate, 1 pM enzyme, 2 hours at 25° C.; read-out: NDM-1 IC50
Chain of NDM-1 (C7C422 whole entry, looked up, species assumed): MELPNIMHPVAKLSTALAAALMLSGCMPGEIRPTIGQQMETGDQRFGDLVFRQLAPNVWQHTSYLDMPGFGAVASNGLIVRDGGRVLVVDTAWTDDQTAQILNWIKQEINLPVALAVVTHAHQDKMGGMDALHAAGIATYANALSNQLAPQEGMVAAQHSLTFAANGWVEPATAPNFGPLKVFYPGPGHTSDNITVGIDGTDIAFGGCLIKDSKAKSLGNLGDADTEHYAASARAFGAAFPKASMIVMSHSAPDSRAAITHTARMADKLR
Outline: as §3

[9] = molecular target: IMP-1 (Serratia marcescens, UniProt P52699); assay: biochemical; type: biochemical; settings: fluorescence assay, CCF2-FA substrate, 2 pM enzyme, 2 hours at 25° C.; read-out: IMP-1 IC50
Chain of IMP-1 (P52699 whole entry, looked up, species assumed): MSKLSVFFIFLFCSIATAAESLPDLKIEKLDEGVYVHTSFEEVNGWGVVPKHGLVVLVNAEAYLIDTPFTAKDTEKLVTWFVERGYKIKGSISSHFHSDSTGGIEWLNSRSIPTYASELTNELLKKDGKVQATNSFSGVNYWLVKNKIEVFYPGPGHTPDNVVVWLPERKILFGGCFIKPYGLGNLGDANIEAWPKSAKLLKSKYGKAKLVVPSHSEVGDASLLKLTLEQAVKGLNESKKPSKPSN
Outline: as §3

[10] = fluorescence assay, read-out: VIM-1 IC50

Row | Compound | Efflux ratio [1] | Serratia marcescens expressing IMP-1 (CL5741) MITC95 [2] | Klebsiella pneumoniae expressing VIM-1 (IHMA599644) MITC95 [3] | Escherichia coli expressing NDM-1 (CLB30016) MITC95 [4] | P. aeruginosa expressing IMP-1, efflux − (MB9799) MITC95 [5] | P. aeruginosa expressing IMP-1, efflux + (MB9798) MITC95 [6] | IC50 ([7]; VIM-1 IC50, fluorescence assay) | IC50 [8] | IC50 [9] | IC50 [7, 10] | Serratia marcescens MITC95 [2] | Klebsiella pneumoniae MITC95 [3] | Escherichia coli MITC95 [4]
1 | Nc1nc2c(-c3ccc(S(=O)(=O)N[C@H]4CNC[C@H]4N)c(S(N)(=O)=O)c3-c3nn[nH]n3)cccc2[nH]1 [Example 241] | 0.83 | 1.042 µM | 1.302 µM | 0.5208 µM | 0.7813 µM | 0.651 µM | 0.182 nM | 0.0536 nM | 0.738 nM | – | – | – | –
2 | CNc1ccc(-c2ccc(S(=O)(=O)N[C@@H]3CCNC3)c(S(N)(=O)=O)c2-c2nn[nH]n2)cn1 [Example 242] | 1.00 | 0.7813 µM | 1.563 µM | 0.7813 µM | 0.7813 µM | 0.7813 µM | – | 0.0611 nM | 0.157 nM | 0.0841 nM | – | – | –
3 | CNc1ccc(-c2ccc(S(=O)(=O)NCCN)c(S(N)(=O)=O)c2-c2nn[nH]n2)cn1 [Example 243] | 1.00 | – | – | – | 0.7813 µM | 0.7813 µM | – | 0.276 nM | 0.312 nM | 0.194 nM | 0.3906 µM | 1.563 µM | 0.3906 µM
4 | CN([C@H]1CCNC1)S(=O)(=O)c1ccc(-c2cccc3[nH]c(N)nc23)c(-c2nn[nH]n2)c1S(N)(=O)=O [Example 244, (S)-4-(2-amino-1H-benzo[d]imidazol-7-yl)-N1-methyl-N1-(pyrrolidin-3-yl)-3-(1H-tetrazol-5-yl)benzene-1,2-disulfonamide] | 2.00 | – | – | – | 0.7813 µM | 1.563 µM | – | 1.3 nM | 6.58 nM | 6.75 nM | 1.563 µM | 1.563 µM | 0.7813 µM
5 | NCCN1CC[C@@H](NS(=O)(=O)c2ccc(-c3cccc4[nH]c(N)nc34)c(-c3nn[nH]n3)c2S(N)(=O)=O)C1 [Example 246, (R)-4-(2-amino-1H-benzo[d]imidazol-4-yl)-N1-(1-(2-aminoethyl)pyrrolidin-3-yl)-3-(2H-tetrazol-5-yl)benzene-1,2-disulfonamide] | 2.00 | – | – | – | 0.7813 µM | 1.563 µM | 0.12 nM | 0.0405 nM | 0.853 nM | – | 1.563 µM | 1.563 µM | 0.7813 µM
6 | NCC(CO)(CO)NS(=O)(=O)c1ccc(-c2cccc3[nH]c(N)nc23)c(-c2nn[nH]n2)c1S(N)(=O)=O [Example 247, 4-(2-amino-1H-benzo[d]imidazol-4-yl)-N-1-(1-amino-3-hydroxy-2-(hydroxymethyl)propan-2-yl)-3-(2H-tetrazol-5-yl)benzene-1,2-disulfonamide] | 2.00 | – | – | – | 0.7813 µM | 1.563 µM | – | 0.0331 nM | 0.504 nM | 0.149 nM | 1.563 µM | 3.125 µM | 0.7813 µM
7 | Nc1nc2c(-c3ccc(S(=O)(=O)NC[C@]4(N)CCNC4)c(S(N)(=O)=O)c3-c3nn[nH]n3)cccc2[nH]1 [Example 250, (S)-4-(2-amino-1H-benzo[d]imidazol-4-yl)-N1-((3-aminopyrrolidin-3-yl)methyl)-3-(2H-tetrazol-5-yl)benzene-1,2-disulfonamide] | 1.00 | – | – | – | 0.7813 µM | 0.7813 µM | – | 0.0335 nM | 0.513 nM | 0.2 nM | 0.7813 µM | 1.563 µM | 0.3906 µM
8 | Nc1nc2c(-c3ccc(S(=O)(=O)NC[C@@]4(N)CCNC4)c(S(N)(=O)=O)c3-c3nn[nH]n3)cccc2[nH]1 [Example 251, (R)-4-(2-amino-1H-benzo[d]imidazol-4-yl)-N1-((3-aminopyrrolidin-3-yl)methyl)-3-(2H-tetrazol-5-yl)benzene-1,2-disulfonamide] | 1.00 | – | – | – | 0.7813 µM | 0.7813 µM | – | 0.0567 nM | 0.755 nM | 0.194 nM | 0.7813 µM | 1.563 µM | 0.7813 µM
9 | Nc1nc2c(-c3ccc(S(=O)(=O)NC4CNC4)c(S(N)(=O)=O)c3-c3nn[nH]n3)cccc2[nH]1 [Example 252, 4-(2-amino-1H-benzo[d]imidazol-4-yl)-N1-(azetidin-3-yl)-3-(2H-tetrazol-5-yl)benzene-1,2-disulfonamide] | 0.68 | – | – | – | 0.6133 µM | 0.418 µM | – | 0.0426 nM | 0.654 nM | 0.149 nM | 0.7383 µM | 0.8359 µM | 0.4271 µM
10 | CN(C1CNC1)S(=O)(=O)c1ccc(-c2cccc3[nH]c(N)nc23)c(-c2nn[nH]n2)c1S(N)(=O)=O [Example 255, 4-(2-amino-1H-benzo[d]imidazol-4-yl)-N1-(azetidin-3-yl)-N1-methyl-3-(2H-tetrazol-5-yl)benzene-1,2-disulfonamide] | 2.00 | – | – | – | 0.7813 µM | 1.563 µM | – | 0.113 nM | 2.84 nM | 0.936 nM | 0.7813 µM | 0.7813 µM | 0.3906 µM
11 | CN1CC(NS(=O)(=O)c2ccc(-c3cccc4[nH]c(N)nc34)c(-c3nn[nH]n3)c2S(N)(=O)=O)C1 [Example 256, 4-(2-amino-1H-benzo[d]imidazol-4-yl)-N1-(1-methylazetidin-3-yl)-3-(2H-tetrazol-5-yl)benzene-1,2-disulfonamide] | 1.00 | – | – | – | 0.7813 µM | 0.7813 µM | – | 0.0416 nM | 0.609 nM | 0.168 nM | 0.7813 µM | 1.563 µM | 0.3906 µM
12 | CC1(NS(=O)(=O)c2ccc(-c3cccc4[nH]c(N)nc34)c(-c3nn[nH]n3)c2S(N)(=O)=O)CNC1 [Example 257] | 1.00 | – | – | – | 0.7813 µM | 0.7813 µM | 0.157 nM | 0.033 nM | 0.642 nM | – | 0.7813 µM | 0.7813 µM | 0.3906 µM
13 | NCCCCNS(=O)(=O)c1ccc(-c2cccc3[nH]c(N)nc23)c(-c2nn[nH]n2)c1S(N)(=O)=O [Example 258, 4-(2-amino-1H-benzo[d]imidazol-7-yl)-N1-(4-aminobutyl)-3-(2H-tetrazol-5-yl)benzene-1,2-disulfonamide] | 1.00 | – | – | – | 0.7813 µM | 0.7813 µM | – | 0.0535 nM | 0.691 nM | 0.156 nM | 0.7813 µM | 1.563 µM | 0.1953 µM
